The NIST ThermoML archive (doi:10.1016/j.jct.2011.01.016)

Experiment: xn = mol fraction of the nth substance listed
Details: 100 kPa, Liquid; for viscosity: Concentric cylinders viscometry; for mass density: Vibrating tube method

CCCCCCCCCCCCCC[P+](CCCCCC)(CCCCCC)CCCCCC.[Br-] [tetradecyltrihexylphosphonium bromide] + O
x2 = 0.68
Details | mass density [kg/m3] | viscosity [mPa·s]
298.15 K | 957 | 238.84
303.15 K | 953.6 | 180.54
308.15 K | 950.3 | 138.77
313.15 K | 946.9 | 108.27
318.15 K | 943.6 | 85.71
323.15 K | 940.2 | 68.71
328.15 K | 936.9 | 55.74
333.15 K | 933.5 | 45.71
338.15 K | 930.2 | 37.91
343.15 K | 926.8 | 31.74
348.15 K | 923.5 | 26.82
353.15 K | 920.1 | 22.85
358.15 K | 916.7 | 19.62
363.15 K | 913.4 | 16.94

CCCCCCCCCCCCCC[P+](CCCCCC)(CCCCCC)CCCCCC.[Cl-] [trihexyl(tetradecyl)phosphonium chloride] + O
x2 = 0.818
Details | mass density [kg/m3] | viscosity [mPa·s]
298.15 K | 901.6 | 134.72
303.15 K | 898.3 | 103.12
308.15 K | 895 | 80.2
313.15 K | 891.7 | 63.3
318.15 K | 888.4 | 50.65
323.15 K | 885.1 | 41.05
328.15 K | 881.8 | 33.64
333.15 K | 878.5 | 27.88
338.15 K | 875.2 | 23.33
343.15 K | 871.9 | 19.71
348.15 K | 868.6 | 16.79
353.15 K | 865.3 | 14.4
358.15 K | 862 | 12.44
363.15 K | 858.6 | 10.81

CCCCCCCCCCCCCC[P+](CCCCCC)(CCCCCC)CCCCCC.CS(=O)(=O)[O-] [trihexyltetradecylphosphonium methanesulfonate] + O
x2 = 0.825
Details | mass density [kg/m3] | viscosity [mPa·s]
298.15 K | 935.1 | 126.55
303.15 K | 931.8 | 97.43
308.15 K | 928.4 | 76.18
313.15 K | 925.1 | 60.41
318.15 K | 921.7 | 48.54
323.15 K | 918.4 | 39.48
328.15 K | 915 | 32.49
333.15 K | 911.6 | 27.02
338.15 K | 908.2 | 22.69
343.15 K | 904.8 | 19.23
348.15 K | 901.4 | 16.45
353.15 K | 898 | 14.16
358.15 K | 894.6 | 12.28
363.15 K | 891.2 | 10.71

CC(CC(C)(C)C)CP(=O)([O-])CC(C)CC(C)(C)C.CCCCCCCCCCCCCC[P+](CCCCCC)(CCCCCC)CCCCCC + O
x2 = 0.876
Details | mass density [kg/m3] | viscosity [mPa·s]
298.15 K | 907.3 | 173.82
303.15 K | 903.9 | 128.58
308.15 K | 900.5 | 97.03
313.15 K | 897.2 | 74.52
318.15 K | 893.8 | 58.16
323.15 K | 890.4 | 46.06
328.15 K | 887.1 | 37
333.15 K | 883.6 | 30.09
338.15 K | 880.2 | 24.76
343.15 K | 876.8 | 20.59
348.15 K | 873.4 | 17.3
353.15 K | 869.9 | 14.66
358.15 K | 866.5 | 12.53
363.15 K | 863.1 | 10.78

CCCCCCCCCCCCCC[P+](CCCCCC)(CCCCCC)CCCCCC.O=S(=O)([N-]S(=O)(=O)C(F)(F)F)C(F)(F)F + O
x2 = 0.088
Details | mass density [kg/m3] | viscosity [mPa·s]
298.15 K | 1066.1 | 300.01
303.15 K | 1062.4 | 224.6
308.15 K | 1058.7 | 170.8
313.15 K | 1055 | 132.06
318.15 K | 1051.4 | 103.5
323.15 K | 1047.7 | 82.08
328.15 K | 1044 | 65.75
333.15 K | 1040.4 | 53.41
338.15 K | 1036.7 | 44.23
343.15 K | 1033.1 | 37.14
348.15 K | 1029.6 | 31.46
353.15 K | 1026 | 26.9
358.15 K | 1022.4 | 23.17
363.15 K | 1018.8 | 20.09
